From PMC7031696 (Cell chemical biology, 2019)

Tested on: 3D7-MR4 trophozoite parasite-infected RBCs
Experiment: Metabolomic profiling (hydrophilic metabolite changes, UHPLC-MS)
Format: cell-based, Plasmodium falciparum

Question: Which results are given for `CN(C)Cc1ccc(-c2cc3c(-c4ccc(CN(C)C)cc4)ccnc3[nH]2)cc1.O=C(O)C(F)(F)F` [MMV022224]?
Answer: Log2(fold changes) adenosine (metabolite adenosine, log2 fold change): 0.0000; Log2(fold changes) alanine/sarcosine (metabolite alanine/sarcosine, log2 fold change): 0.0223; Log2(fold changes) anthranilate (metabolite anthranilate, log2 fold change): 0.0000; Log2(fold changes) arginine (metabolite arginine, log2 fold change): 0.0000; Log2(fold changes) asparagine (metabolite asparagine, log2 fold change): 0.2620; Log2(fold changes) aspartate (metabolite aspartate, log2 fold change): -0.0524; Log2(fold changes) biotin (metabolite biotin, log2 fold change): 0.0000; Log2(fold changes) cCMP (metabolite cCMP, log2 fold change): 0.0000; Log2(fold changes) cGMP (metabolite cGMP, log2 fold change): 0.0000; Log2(fold changes) carnitine (metabolite carnitine, log2 fold change): 0.0000; Log2(fold changes) citrate/isocitrate (metabolite citrate/isocitrate, log2 fold change): -0.2505; Log2(fold change) of coenzyme A (metabolite coenzyme A): -0.6694; Log2(fold change) of cyclic-AMP (metabolite cyclic-AMP): 0.0000; Log2(fold change) of cytidine (metabolite cytidine): 0.1493; Log2(fold change) of dAMP (metabolite dAMP): 0.0000; Log2(fold change) of dATP (metabolite dATP): -0.1042; Log2(fold change) of dCDP (metabolite dCDP): -0.6243; Log2(fold change) of dCMP (metabolite dCMP): -0.5224; Log2(fold change) of dCTP (metabolite dCTP): -0.4073; Log2(fold change) of dGDP/ADP (metabolite dGDP/ADP): -0.4184; Log2(fold change) of dGMP/AMP (metabolite dGMP/AMP): -0.2434; Log2(fold change) of dGTP/ATP (metabolite dGTP/ATP): -0.1490; Log2(fold change) of dTDP (metabolite dTDP): 0.0000; Log2(fold change) of dTMP (metabolite dTMP): -0.1539; Log2(fold change) of dTTP (metabolite dTTP): -0.2628; Log2(fold change) of dUMP (metabolite dUMP): 0.0000; Log2(fold change) of dUTP (metabolite dUTP): 0.0000; Log2(fold change) of deoxyguanosine (metabolite deoxyguanosine): 0.0000; Log2(fold change) of deoxyinosine (metabolite deoxyinosine): 0.0000; Log2(fold change) of deoxyribose-phosphate (metabolite deoxyribose-phosphate): 0.0000; Log2(fold change) of deoxyuridine (metabolite deoxyuridine): 0.0000; Log2(fold change) of dihydroorotate (metabolite dihydroorotate): 0.4231; Log2(fold change) of folate (metabolite folate): 0.2103; Log2(fold change) of fructose-1-6-bisphosphate (metabolite fructose-1-6-bisphosphate): -0.0559; Log2(fold change) of fructose-6-phosphate (metabolite fructose-6-phosphate): 0.0000; Log2(fold change) of fumarate (metabolite fumarate): -0.4743; Log2(fold change) of glucono-lactone (metabolite glucono-lactone): 0.0000; Log2(fold change) of glucose-1/6-phosphate (metabolite glucose-1/6-phosphate): 0.0000; Log2(fold change) of glutamate (metabolite glutamate): -0.2593; Log2(fold change) of glutamine (metabolite glutamine): 0.1154; Log2(fold change) of glutathione (metabolite glutathione): -0.5102; Log2(fold change) glutathione disulfide (metabolite glutathione disulfide): -0.1758; Log2(fold change) glycerate (metabolite glycerate): 0.0000; Log2(fold change) guanine (metabolite guanine): -0.4489; Log2(fold change) guanosine (metabolite guanosine): 0.0000; Log2(fold change) histidine (metabolite histidine): 0.2818; Log2(fold change) homocysteic acid (metabolite homocysteic acid): 0.0000; Log2(fold change) hydroxyphenylpyruvate (metabolite hydroxyphenylpyruvate): 0.0000; Log2(fold change) hydroxyproline/Aminolevulinate (metabolite hydroxyproline/Aminolevulinate): -0.0239; Log2(fold change) hypoxanthine (metabolite hypoxanthine): 0.0610; Log2(fold change) indole (metabolite indole): 0.8345; Log2(fold change) inosine (metabolite inosine): -0.1646; Log2(fold change) isoleucine (metabolite isoleucine): -0.1407; Log2(fold change) lactate (metabolite lactate): -0.4343; Log2(fold change) leucine (metabolite leucine): 0.0081; Log2(fold change) lysine (metabolite lysine): 0.0000; Log2(fold change) malate (metabolite malate): -0.4038; Log2(fold change) maleic acid (metabolite maleic acid): -0.3811; Log2(fold change) methionine (metabolite methionine): 0.2971; Log2(fold change) myo-inositol (metabolite myo-inositol): 0.0000; Log2(fold change) nicotinamide mononucleotide (metabolite nicotinamide mononucleotide): 0.0000; Log2(fold change) nicotinate (metabolite nicotinate): -0.4667; Log2(fold change) ornithine (metabolite ornithine): 0.0000; Log2(fold change) orotate (metabolite orotate): -0.1913; Log2(fold change) orotidine-5'-phosphate (metabolite orotidine-5'-phosphate): -0.1124; Log2(fold change) oxaloacetate (metabolite oxaloacetate): 0.0000; Log2(fold change) p-aminobenzoate (metabolite p-aminobenzoate): 0.0000; Log2(fold change) p-hydroxybenzoate (metabolite p-hydroxybenzoate): 0.0000; Log2(fold change) pantothenate (metabolite pantothenate): -0.1562; Log2(fold change) phenylalanine (metabolite phenylalanine): -0.0454; Log2(fold change) phenylpyruvate (metabolite phenylpyruvate): 0.0000; Log2(fold change) phosphoenolpyruvate (metabolite phosphoenolpyruvate): -0.1663; Log2(fold change) prephenate (metabolite prephenate): 0.0000; Log2(fold change) proline (metabolite proline): -0.1446; Log2(fold change) pyridoxine (metabolite pyridoxine): 0.0000; Log2(fold change) pyruvate (metabolite pyruvate): -0.5314; Log2(fold change) riboflavin (metabolite riboflavin): 0.4707; Log2(fold change) ribose (metabolite ribose): 0.0000; Log2(fold change) ribose-phosphate (metabolite ribose-phosphate): 0.0000; Log2(fold change) ribulose-5-phosphate (metabolite ribulose-5-phosphate): -0.0752; Log2(fold change) serine (metabolite serine): 0.2570; Log2(fold change) sn-glycerol-3-phosphate (metabolite sn-glycerol-3-phosphate): 0.2730; Log2(fold change) succinate/Methylmalonic acid (metabolite succinate/Methylmalonic acid): -0.4610; Log2(fold change) succinyl-CoA/methylmalonyl-CoA (metabolite succinyl-CoA/methylmalonyl-CoA): -0.1003; Log2(fold change) taurine (metabolite taurine): 0.0000; Log2(fold change) thiamine (metabolite thiamine): 0.0000; Log2(fold change) threonine/homoserine (metabolite threonine/homoserine): 0.2231; Log2(fold change) thymidine (metabolite thymidine): 0.0000; Log2(fold changes) thymine (metabolite thymine, log2 fold change): 0.0000; Log2(fold changes) trehalose-6-Phosphate (metabolite trehalose-6-Phosphate, log2 fold change): 0.0000; Log2(fold changes) tryptophan (metabolite tryptophan, log2 fold change): 0.5432; Log2(fold changes) tyrosine (metabolite tyrosine, log2 fold change): 0.1420; Log2(fold changes) uridine (metabolite uridine, log2 fold change): 0.0000; Log2(fold changes) valine (metabolite valine, log2 fold change): -0.1357; Log2(fold changes) xanthine (metabolite xanthine, log2 fold change): 0.0000; Log2(fold changes) xanthosine-5-phosphate (metabolite xanthosine-5-phosphate, log2 fold change): -0.1792; Log2(fold changes) xanthosine (metabolite xanthosine, log2 fold change): -1.8994; Log2(fold changes) xylose (metabolite xylose, log2 fold change): 0.0000
